“And” between values parts separate entries of the source, which are not always exact repeats. Identical values can stand only once. Like-named read-outs stand apart in the source and are kept apart here. Marks after values point to notes of the source that are not given here. No end group written: not given here.
What was measured:
[1] = test system: Female Kunming mice
[2] = test system: Female Kunming mice; remark: listed apart in the source
[3] = test system: male BALB/c mice; test: cancer-induced pain (CIP) model, thermosensitive test; format: in vivo; conditions: heat radiation stimulation
Experimental: Influence of Analgesic Polypeptides on Neuralgia in a Cancer-Induced Pain (CIP) Model
A number of male BALB/c mice each weighing 25-30 g were used.
Von Fery monofilament; a microsyringe, 5 mg/mL solutions of polypeptides I, II and II I; normal saline.
BALB/c mice were taken, and the right sciatic nerve was exposed; ascites containing 5×10^4 Meth A sarcoma cells were injected into the proximal nerve near the sciatic nerve trochanter far from the tendon branch of the posterior biceps, the wound was closed, and the same volume of normal saline was injected into the left side by performing a sham operation.
1.3.1 Thermosensitive Test
On the 4th, 7th, 10th and 14th days after inoculation, the latency of foot lifting caused by heat radiation stimulation to animals was observed, and the heat radiation intensity was adjusted to cause the latency of foot lifting of normal mice to be (10±2) s.
All data was expressed as M±SD and subjected to one-way ANOVA.

[4] = test system: Kunming mice; conditions: mouse, in vivo
[5] = test system: Female Kunming mice; format: in vivo
[6] = test system: Female Kunming mice; remark: listed apart in the source
[7] = test system: Kunming mice; format: in vivo
[8] = test system: SD rats; test: pain threshold of trigeminal nerve (trigeminal neuralgia model); format: in vivo; conditions: for highest pain threshold on the operative side / pain threshold on the opposite side: 3 h after injection; for Pain threshold: intraperitoneal
[9] = 50 μg/kg, injected subcutaneously
[10] = 100 μg/kg, injected subcutaneously

KCSTPPDAVLYC (cysteine pairing not given here) [Polypeptide III, one pair of disulfide bonds formed between the two cysteines]
Duration of the immobility of mice in tail suspension tests ([1]; 1 h): 20.12 ± 1.28 s | Duration of the immobility of mice in tail suspension tests ([1]; 24 h): 19.23 ± 1.84 s | Duration of the immobility of mice in tail suspension tests ([1]; Time 0): 19.28 ± 1.02 s | data of tail suspension test compared with the normal saline group ([1]; mouse, in vivo, ip): no significant difference | toxic side effects compared with the conotoxin (tail suspension) ([1]; mouse, in vivo, ip): lower toxic side effects | Movement distances of mice in open field tests ([2]; 1 h): 18.27 ± 1.22^ | Movement distances of mice in the center area in open field tests ([2]; 1 h): 18.57 ± 1.22^ | Movement distances of mice in the peripheral area in open field tests ([2]; 1 h): 19.47 ± 1.32^ | Number of entrances to the center area in open field tests ([2]; 1 h): 18.47 ± 0.32^ | Number of entrances to the peripheral area in open field tests ([2]; 1 h): 18.57 ± 1.42^ | Residence time in the center area in open field tests ([2]; 1 h): 18.37 ± 1.22^ s | Residence time in the peripheral area in open field tests ([2]; 1 h): 14.27 ± 1.34^ s | Movement distances of mice in open field tests ([2]; 24 h): 19.13 ± 2.38 m | Movement distances of mice in the center area in open field tests ([2]; 24 h): 18.13 ±1.38 m | Movement distances of mice in the peripheral area in open field tests ([2]; 24 h): 19.03 ± 2.48 m | Number of entrances to the center area in open field tests ([2]; 24 h): 18.23 ± 1.48 | Number of entrances to the peripheral area in open field tests ([2]; 24 h): 17.13 ± 2.18 | Residence time in the center area in open field tests ([2]; 24 h): 18.13 ± 1.38 s | Residence time in the peripheral area in open field tests ([2]; 24 h): 18.13 ± 1.45 s | Movement distances of mice in open field tests ([2]; Time 0): 21.28 ± 1.28 m | Movement distances of mice in the center area in open field tests ([2]; Time 0): 21.88 ±1.18 m | Movement distances of mice in the peripheral area in open field tests ([2]; Time 0): 20.98 ± 1.28 m | Number of entrances to the center area in open field tests ([2]; Time 0): 21.28 ± 1.28 | Number of entrances to the peripheral area in open field tests ([2]; Time 0): 21.28 ± 1.38 | Residence time in the center area in open field tests ([2]; Time 0): 21.78 ± 1.17 s | Residence time in the peripheral area in open field tests ([2]; Time 0): 21.88 ± 1.38 s | side effects compared with conotoxin (open field) ([2]; mouse, in vivo, ip): lower side effects | various indexes in open field experiments compared with the normal saline group ([2]; mouse, in vivo, ip): no significant difference | Latency of foot lifting before administration ([3]; before administration): 9.77 ± 1.21 | Latency (D) of foot lifting after administration ([3]; day 4): 9.45 ± 1.02 | Latency (D) of foot lifting after administration ([3]; day 7): 8.88 ± 0.86 | Latency (D) of foot lifting after administration ([3]; day 10): 8.26 ± 1.21 | Latency (D) of foot lifting after administration ([3]; day 14): 6.78 ± 1.22 | analgesic effects in formalin-induced pain experiments [4]: good analgesic effects | cumulative foot licking time, Phase I [4]: 47.19 ± 10.21*^ | cumulative foot licking time, Phase II [4]: 41.23 ± 13.21 | Pain threshold ([5]; 0 min): 29.22 ± 0.11 s | Pain threshold ([5]; mouse, in vivo, ip): 31.22 ± 0.42^∧∧ s and 33.12 ± 0.32*^∧ s and 27.23 ± 0.42^∧ s and 21.49 ± 0.45^∧ s and 32.14 ± 0.42 s and 21.43 ± 0.24 s | heat thresholds of mice compared with the normal saline negative control group ([5]; mouse, in vivo, ip): effectively increase the heat thresholds of mice | Movement duration of mice in forced swimming tests ([6]; 1 h): 18.57 ± 1.21^ s | Movement duration of mice in forced swimming tests ([6]; 24 h): 17.13 ± 1.23 s | Movement duration of mice in forced swimming tests ([6]; Time 0): 21.40 ± 1.38 s | toxic side effects compared with the conotoxin (forced swimming) ([6]; mouse, in vivo, ip): lower toxic side effects | Pain threshold (tail flick) ([7]; 0 min): 2.31 ± 0.22 s | Pain threshold (tail flick) ([7]; 15 min): 2.22 ± 0.21^∧∧ s | Pain threshold (tail flick) ([7]; 30 min): 2.32 ± 0.12 s | Pain threshold (tail flick) ([7]; 45 min): 4.12 ± 0.12^∧ s | Pain threshold (tail flick) ([7]; 60 min): 2.12 ± 0.21 s | Pain threshold (tail flick) ([7]; 75 min): 2.14 ± 0.12 s | Pain threshold (tail flick) ([7]; 90 min): 3.12 ± 0.14 s | difference from the normal saline group during a time period (**P<0.01) ([7]; mouse, in vivo): significantly different from the normal saline group | animal reaction thresholds ([8]; 50 μg/kg and 100 μg/kg, injected subcutaneously): significantly increased | time the pain thresholds lasted [8, 9]: 1 h | highest pain threshold on the operative side [8, 9]: 2.3 ± 0.5 g | pain threshold on the opposite side [8, 9]: 1.2 ± 0.2 g | time the effect on the operative side lasted [8, 10]: about 8 h | highest pain threshold on the operative side [8, 10]: 7.4 ± 0.9 g | pain threshold on the opposite side [8, 10]: 3.2 ± 1.3 g | pain threshold change ([8]; 300 μg/kg, subcutaneously): not significantly increased | Pain threshold ([8]; Dose 50 (μg/kg), 0 h): 25.98 ± 0.11 s | Pain threshold ([8]; Dose 50 (μg/kg), 1 h): 26.25 ± 0.46 s | Pain threshold ([8]; Dose 50 (μg/kg), 2 h): 26.69 ± 0.62 s | Pain threshold ([8]; Dose 50 (μg/kg), 3 h): 26.91 ± 0.49 s | Pain threshold ([8]; Dose 50 (μg/kg), 4 h): 27.91 ± 0.26 s | Pain threshold ([8]; Dose 50 (μg/kg), 5 h): 26.91 ± 0.61 s | Pain threshold ([8]; Dose 100 (μg/kg), 0 h): 26.56 ± 0.23 s | Pain threshold ([8]; Dose 100 (μg/kg), 1 h): 27.65 ± 0.61 s | Pain threshold ([8]; Dose 100 (μg/kg), 2 h): 28.16 ± 0.59 s | Pain threshold ([8]; Dose 100 (μg/kg), 3 h): 27.19 ± 0.91 s | Pain threshold ([8]; Dose 100 (μg/kg), 4 h): 28.16 ± 0.61 s | Pain threshold ([8]; Dose 100 (μg/kg), 5 h): 26.16 ± 0.91 s | Pain threshold ([8]; Dose 300 (μg/kg), 0 h): 26.15 ± 0.65 s | Pain threshold ([8]; Dose 300 (μg/kg), 1 h): 31.95 ± 0.56 s | Pain threshold ([8]; Dose 300 (μg/kg), 2 h): 30.21 ± 0.64 s | Pain threshold ([8]; Dose 300 (μg/kg), 3 h): 29.91 ± 0.61 s | Pain threshold ([8]; Dose 300 (μg/kg), 4 h): 28.85 ± 0.41 s | Pain threshold ([8]; Dose 300 (μg/kg), 5 h): 27.92 ± 0.61 s
